Measurements from publication PMC11187126, “Structure and dynamics of the pyroglutamylated RF-amide peptide QRFP receptor GPR103” (Nature Communications, 2024).
Like-named read-outs stand apart in the source and are kept apart here. No end group written: not given here.

Biological target: T1, GPR103 C285^6.47A (Homo sapiens, UniProt Q96P65, C285A)
T1 construct: we used human full-length QRFPR-encoding plasmids; expressed in transfected cells; host or cells: HEK293 cells (HEK293A in the flow cytometry section), pCAGGS vector
T1 sequence (Q96P65 1-431 C285A): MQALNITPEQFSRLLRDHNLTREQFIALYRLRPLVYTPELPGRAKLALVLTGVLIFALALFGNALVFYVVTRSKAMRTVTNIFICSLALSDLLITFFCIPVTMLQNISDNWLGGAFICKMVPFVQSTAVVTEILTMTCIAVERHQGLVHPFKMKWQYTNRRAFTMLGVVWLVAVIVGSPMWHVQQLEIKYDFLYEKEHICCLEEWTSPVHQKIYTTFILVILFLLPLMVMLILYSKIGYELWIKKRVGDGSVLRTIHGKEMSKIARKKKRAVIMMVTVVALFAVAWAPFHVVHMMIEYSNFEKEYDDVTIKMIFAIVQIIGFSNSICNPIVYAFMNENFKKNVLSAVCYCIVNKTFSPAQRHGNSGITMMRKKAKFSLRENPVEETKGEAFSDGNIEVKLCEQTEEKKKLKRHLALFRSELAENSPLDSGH
Experiment: TGFα shedding assay; Exp. level WT (1:20)
Type: cell-based
Protocol: For the TGFα shedding assay and the flow cytometry analysis, we used human full-length QRFPR-encoding plasmids. Specifically, GPR103 was N-terminally modified with an HA signal sequence followed by a FLAG epitope and then a flexible linker ([…]; the FLAG epitope is underlined) and inserted into the pCAGGS vector. Plasmid encoding GPR103 mutants were generated using Quickchange Site-Directed Mutagensis kit (Agilent).
The TGFα shedding assay was performed as described previously with minor modifications. Plasmid transfection was performed in a 6-well plate with a mixture of 500 ng (per well in a 6-well plate) AP-TGFα-encoding plasmid and 200 ng GPR103-encoding plasmid. After 1-day culture, the transfected cells were harvested by trypsinization, pelleted by centrifugation at 190 × g for 5 min, and washed once with 5 mM HEPES (pH 7.4)-containing Hank’s Balanced Salt Solution (HBSS). After centrifugation, the cells were resuspended in 8 mL of the HEPES-containing HBSS. The cell suspension was seeded in a 96-well culture plate (cell plate) at a volume of 90 μL (per well hereafter) and incubated in a 37 °C incubator with 5% CO2 for 30 min. […] After spinning the cell plates at 190 × g for 2 min, 80 μL of conditioned media was transferred to an empty 96-well plate (conditioned media (CM) plate). Then, 80 μL of AP reaction solution (10 mM p-nitrophenylphosphate (p-NPP), 120 mM Tris-HCl (pH 9.5), 40 mM NaCl, and 10 mM MgCl2) was dispensed into the cell plates and the CM plates. Absorbance at 405 nm of the plates was measured using a microplate reader (SpectraMax 340 PC384, Molecular Devices) before and after 1-h incubation at room temperature. Ligand-induced AP-TGFα release was calculated by subtracting spontaneous AP-TGFα release signal from ligand-induced AP-TGFα release signal. The AP-TGFα release signals were fitted to a four-parameter sigmoidal concentration–response curve, using the Prism 10 software (GraphPad Prism). For each replicate experiment, the pEC50 parameter (negative logarithmic values of EC50 values) of the individual GPR103 mutants were normalized to that of the wild-type GPR103 performed in parallel, and resulting ∆pEC50 values were used to denote ligand response activity of the mutants. […]
Exp. le vel: WT (1:5 0)Exp. le vel: WT (1:5 0)Exp. le vel: WT (1:5 0)Exp. le vel: WT (1:2 0)Exp. le vel: WT (1:2 0)Exp. le vel: WT (1:1 0) […]
L1 4N - t e r mA F2 5N - t e r mA I 2 6N - t e r mA Y 2 9N - t e r mA C 9 82 .5 7A T10 22 .6 1A Exp . l eve l: WT (1 :5)Exp . l evel : >WT (1 :1)Exp. le vel: WT (1:2 0)Exp. le vel: WT (1:2 0)Exp. le vel: WT (1:5 0)Exp . l eve l: WT (1 :1) […]
Exp. le vel: WT (1:1 0)Exp. le vel: WT (1:2 0) C 1 1 83 .2 5AExp. le vel: WT (1:5 0)Exp. le vel: WT (1:5 0)Exp. le vel: WT (1:2 0)Exp . l eve l: WT (1 :5) […]
Exp. le vel: WT (1:5 0)Exp. le vel: WT (1:1 0)Exp. le vel: WT (1:5 0) E203ECL2AExp . l evel : >WT (1 :1)Exp. le vel: WT (1:5 0)Exp. le vel: WT (1:5 0) […]
Exp . l eve l: WT (1 :1) F28Exp. le vel: WT (1:5 0) C 2 8 56 .4 7AExp. le vel: WT (1:2 0) WExp. le vel: WT (1:2 0) F28Exp. le vel: WT (1:5 0)Exp . l evel : >WT (1 :1) […]
Exp. le vel: WT (1:5 0)Exp. le vel: WT (1:5 0) C 3 2 77 .4 8AExp . l eve l: WT (1 :5)Exp . l evel : >WT (1 :1)Exp . l evel : >WT (1 :1) […]
Suppl eme nt ary Figure 1 | Mutational analysis of GPR103. […]
mutants. Data are presented as mean values ± SEM, normally n=3-5; dots), each performed in triplicate. b-d Cell-surface expression (b) and QRFP26-in-duced activation of GPR103 (c, d) were analyzed by the flow cytometry and the TGFα shedding assay, respectively. From the concentration–response curves (a), Emax (c) and ΔpEC50 (d) values relative to the wild type were calculated. Colors in the mutant bars indicate an expression level matching to that of titrated wild type. Statistical analyses were performed using the ordinary one-way ANOVA followed by Dunnett tests with the expression-matched […]

Emax (Exp. #1): 81.15 % WT
Emax (Exp. #2): 80.43 % WT
Emax (Exp. #3): 87.98 % WT
Emax (mean, read-out: Emax): 83.2%
EC50 (n = 3): 14.1 nM
Emax (n = 3, read-out: Emax): 86.7 ± 2%
Substance: TSGPLGNLAEELNGYSRKKGGFSFRF-NH2 [QRFP26]
